# Measurements reported in patent US20030021810A1 (priority 2001, published 2003).
# Key:
# Format in all cases: cell-based
# glioma cells [1] = test: in situ zymography of cell surface gelatinolytic activity; conditions: 50 μM, 30 minutes at 37° C.
# Experimental: FITC-labeled DQ gelatin which is intramolecularly quenched (Molecular Probes, Eugene, Oreg.) was used as a substrate for degradation by gelatinases as reported earlier (Oh et al., 1999). Proteolysis by gelatinases yields cleaved FITC-gelatin peptides and the localization of this fluorescence indicates the sites of net gelatinolytic activity. Briefly, glioma cells were plated on 12 mm coverslips. […] Untreated cells served as negative control for this experiment. Cells were then washed with PBS and then incubated with zymography reaction buffer (0.05 M Tris-HCl, 0.15 M NaCl, 5 mM CaCl2 and 0.2 mM NaN3, pH 7.6- the high concentration of azide will prevent the gelatin from phagocytosing and thus allow cell surface gelatinolytic activity to occur) containing 100 μg/ml DQ gelatin at 37° C. overnight. At the end of the incubation period, without fixation or further washes, gelatinolytic activity of the MMP-s was localized and photographed by fluorescence microscopy and the images were acquired by Spot digital camera.
# glioma cells [2] = test: release of mature MMP-2 into conditioned media (Western blot, gelatinase activity assay); conditions: 50 μM
# Experimental: For these experiments, glioma cells were plated in 96 well (5000 cells/well) or 24 well plates (2.5×10^4/well) in serum containing medium (SCM). After overnight incubation, cell cultures were washed and incubated with serum free medium (SFM) for 24 hrs. Cells were then treated with His-Cltx at concentrations ranging from 30 nM to 3000 nM for 10 min or 30 min at 37° C. Cells were washed and replenished with serum free medium and at post-incubation periods of 10 min, 30 min and 24 hrs, conditioned media was collected from all samples and analyzed for matrix-metalloproteinase-2 activity by gelatinase activity assay as well as Western blots analysis for detection of matrix-metalloproteinase-2 protein. Cells treated with irrelevant His-protein were used as a negative control (untreated cells). […] Conditioned media from 10 wells were pooled for gelatinase activity assay as well as western blot analysis and data shown herein represents an average of three experiments.
# glioma cells [3] = test: matrigel invasion assay
# Text: Matrigel matrix is a reconstituted basement membrane isolated from Englebreth-Holm-Swarm (EHS) mouse sarcoma, a tumor rich in extracellular matrix proteins. Matrigel-invasion chamber consisted of falcon cell culture inserts of 8 μm pore-size with a uniform layer of matrigel matrix that occludes the membrane pores. […] Cells which remained in the upper chamber were scrubbed off the inserts and the invaded cells were fixed and stained with crystal violet.
smiles,measurement,setting,value
c1cnc2c(c1)ccc1cccnc12 [1-10 phenanthroline],inhibition of cell surface gelatinolytic activity versus 300 nM chlorotoxin,glioma cells [1],comparable
same,release of MMP-2 into the medium,glioma cells [2],blocked the release
same,inhibition of invasion compared with chlorotoxin,glioma cells [3]; glioma cells,essentially identical inhibition
same,change of inhibition of glioma invasion,glioma cells [3]; treatment with Filipin,only minimally affected
